From the NIST ThermoML archive (doi:10.1016/j.jct.2012.11.011)

Assay: xn = mol fraction of the nth substance listed
Settings: Liquid, Vibrating tube method

CCOC(=O)OCC [diethyl carbonate] + CCCCCCCC
mass density [kg/m3]
Settings	x1 = 0.0522	x1 = 0.1042	x1 = 0.1671	x1 = 0.322	x1 = 0.3657	x1 = 0.5075	x1 = 0.6922	x1 = 0.8002	x1 = 0.9206	x1 = 0.9459
288.15 K, 100 kPa	716	726.1	738.6	772.6	784	820.5	874.2	908.5	951	959.8
288.15 K, 5000 kPa	720.1	730.4	742.8	778.1	788.4	824.9	879.4	912.8	954.9	964.3
288.15 K, 10000 kPa	723.9	734.4	746.8	782.1	792.6	829	883.7	917	958.8	968.6
288.15 K, 20000 kPa	731.2	741.6	754.1	789.6	800.1	836.8	891.6	925	966.5	976.3
288.15 K, 30000 kPa	737.8	748.2	760.7	796.5	807.1	843.9	898.5	932.1	973.8	983.3
288.15 K, 40000 kPa	744	754.5	767.2	803.1	813.7	850.5	907.6	939	980.7	990.3
298.15 K, 100 kPa	707.7	717.7	729.9	764.5	774.7	810.7	864.7	897.7	939.2	949.3
298.15 K, 5000 kPa	712.5	722.5	734.7	769.5	779.7	815.8	869.8	902.8	944.2	953.8
298.15 K, 10000 kPa	716.3	726.3	738.5	773.4	783.7	819.8	873.8	906.9	948.2	957.7
298.15 K, 20000 kPa	723.9	734	746.3	781.4	791.8	828.1	882	915.2	956.4	965.9
298.15 K, 30000 kPa	730.8	741	753.4	788.8	799.1	835.6	889.8	922.8	964	973.6
298.15 K, 40000 kPa	737.2	747.4	759.9	795.5	805.9	842.4	896.9	929.9	971.1	980.7
308.15 K, 100 kPa	699.6	709.3	721.2	755.4	765.4	801	854.3	887.1	928	937.6
308.15 K, 5000 kPa	704.2	714	725.9	760.4	770.4	805.9	859.3	892	932.9	942.6
308.15 K, 10000 kPa	708.7	718.5	730.5	765.1	775.1	810.8	864.1	896.8	937.6	947.3
308.15 K, 20000 kPa	716.6	726.5	738.7	773.3	783.6	819.4	873	905.6	946.3	956
308.15 K, 30000 kPa	723.8	733.9	746.2	781.1	791.2	827.2	880.9	913.7	954.3	964.1
308.15 K, 40000 kPa	730.5	740.7	753	788	798.3	834.6	888.3	921.2	961.9	971.5

CCOC(=O)OCC [diethyl carbonate] + CCCCCCCCCC
mass density [kg/m3]
Settings	x1 = 0.0538	x1 = 0.1716	x1 = 0.2151	x1 = 0.3257	x1 = 0.5032	x1 = 0.5482	x1 = 0.7985	x1 = 0.8989	x1 = 0.9487
288.15 K, 100 kPa	740.8	759.4	766.3	786.5	821.3	832.2	903.2	937.5	956.9
288.15 K, 5000 kPa	744.5	763.3	770.2	790.5	826.7	836.6	907.4	943.6	963
288.15 K, 10000 kPa	748	766.8	773.7	794.3	830.7	840.6	911.5	947.7	967.1
288.15 K, 20000 kPa	754.6	773.6	780.5	801.2	837.8	847.8	919	955.4	974.8
288.15 K, 30000 kPa	760.6	780.9	786.9	807.5	844.6	854.5	926	962.6	981.9
288.15 K, 40000 kPa	766.4	785.6	792.8	813.8	850.9	860.9	932.8	969.5	988.9
298.15 K, 100 kPa	733.1	751.2	758	777.9	813.5	823.1	892.8	928.3	947.6
298.15 K, 5000 kPa	737.6	755.8	762.6	782.6	818.2	827.8	897.7	933.5	952.7
298.15 K, 10000 kPa	740.7	759.1	766	786.1	821.9	831.7	901.5	937.5	956.6
298.15 K, 20000 kPa	747.7	766.2	773.1	793.5	829.7	839.4	909.6	945.7	964.8
298.15 K, 30000 kPa	753.9	772.6	779.8	800.2	836.7	846.5	917.1	953.2	972.2
298.15 K, 40000 kPa	759.8	778.7	785.8	806.5	843.3	853.1	924.1	960.2	979.3
308.15 K, 100 kPa	725.5	743.2	749.9	769.4	804.4	813.9	882.5	917.7	936.6
308.15 K, 5000 kPa	729.6	747.5	754.3	773.9	809	818.4	887.3	922.6	941.5
308.15 K, 10000 kPa	733.6	751.6	758.4	778.1	813.5	823	892	927.1	946.2
308.15 K, 20000 kPa	740.7	758.9	765.9	785.9	821.4	831	900.5	935.7	954.6
308.15 K, 30000 kPa	747.5	765.8	772.7	792.9	828.9	838.4	908.2	943.8	962.7
308.15 K, 40000 kPa	753.6	772.1	779.1	799.4	835.8	845.3	915.6	951.2	970.2
